Source: patent US20060229293A1, “Compositions for the treatment of hepatitis C and methods for using compositions for the treatment of hepatitis C” (Addiction Research Institute, Inc., priority 2005, published 2006)

Legend:
Type in all cases: in vivo, human
HCV [1] = test: Case report, Example 1: HCV positive heroin user given ibogaine HCl; details: person, 25 mg/kg
Description: A person diagnosed as HCV positive and using ½ gram of heroin per day was administered 25 mg/kg of ibogaine HCl. Following the administration of ibogaine, heroin use ceased along with swelling of the liver and pain in the area of the liver.

HCV [2] = test: Case report, Example 2: liver enzyme levels in HCV positive after ibogaine HCl; details: person, 14 mg/kg self-administered
Description: A person testing positive for HCV and dependent on heroin and methadone self-administered 14 mg/kg of ibogaine HCl. AST was reduced from pretreatment level of 201 to post treatment level of 25. ALT was reduced from pretreatment level of 410 to post treatment level of 50. GGT level was reduced from 155 to 33.

HCV RNA genotype 1 = test: Case report, Example 3: HCV RNA and liver enzymes after an escalating dose regimen of ibogaine HCl
Description: A person testing positive for HCV RNA genotype 1, administered the following dose regimen of ibogaine HCl. Subject weighed 79 kg. Doses administered were as total doses and not mg/kg. Day 1: 10 mg ibogaine HCl. Day 2: 20 mg ibogaine HCl. Day 3: 20 mg ibogaine HCl. Day 4: 30 mg ibogaine HCl. Day 5: 50 mg ibogaine HCl. Day 6: 75 mg ibogaine HCl. Day 8: 100 mg ibogaine HCl. Day 10: 150 mg ibogaine HCl. Day 14: 300 mg ibogaine HCl. HCV RNA IU/mL was reduced from 780,000 to 644,000. Pretreatment Alkaline Phosphatase was 99, AST was 103 and ALT 195. Post treatment Alkaline Phosphatase 88, AST 89 and ALT 127. An additional 250 mg of ibogaine HCl further reduced HCV RNA IU/mL to 384,000. A final dose within this regimen of 250 mg ibogaine was administered reducing the HCV RNA IU/mL to 154,000.

HCV RNA genotype 3 = test: Case report, Example 4: HCV RNA after ibogaine HCl over 48 hours; details: total of 27 mg/kg over 48 hours
Description: A person weighing 160 lbs tested positive HCV RNA genotype 3. RNA IU/mL was 12,600,000. Subject was administered a total of 27 mg/kg of ibogaine HCl over a period of 48 hours in the following regimen: 2 mg/kg, 2 mg/kg, 2 mg/kg, 2 mg/kg, 2 mg/kg, 2 mg/kg, 12 mg/kg, and 3 mg/kg. HCV RNA IU/mL was reduced to 50,100. Prior to ibogaine therapy patient's urine was dark and stool light. Post treatment color of urine and stool were normal.

Substance: ibogaine HCl
- pain in the area of the liver following administration (HCV [1]): ceased
- swelling of the liver following administration (HCV [1]): ceased
- heroin use following administration (HCV [1]; using ½ gram of heroin per day): ceased
- AST post treatment level (HCV [2]; pretreatment level 201): 25
- ALT post treatment level (HCV [2]; pretreatment level 410): 50
- GGT level post treatment (HCV [2]; reduced from 155): 33
- HCV RNA after an additional dose (HCV RNA genotype 1; additional 250 mg after the Day 1-14 regimen, previous level 644,000): 384,000 IU/mL
- HCV RNA after the final dose (HCV RNA genotype 1; final dose of 250 mg within the regimen, previous level 384,000): 154,000 IU/mL
- HCV RNA after regimen (HCV RNA genotype 1; person, 79 kg, genotype 1, total doses 10-300 mg on Days 1-14, reduced from 780,000): 644,000 IU/mL
- Alkaline Phosphatase post treatment (HCV RNA genotype 1; person, genotype 1, Day 1-14 regimen, pretreatment 99): 88
- AST post treatment (HCV RNA genotype 1; person, genotype 1, Day 1-14 regimen, pretreatment 103): 89
- ALT post treatment (HCV RNA genotype 1; person, genotype 1, Day 1-14 regimen, pretreatment 195): 127
- HCV RNA after treatment (HCV RNA genotype 3; person, 160 lbs, genotype 3, before treatment 12,600,000): 50,100 IU/mL
- color of urine and stool post treatment (HCV RNA genotype 3; prior to therapy urine dark and stool light): normal
